Key:
[1] = molecular target: T1, CDK2/CycE (Homo sapiens, UniProt P24941); test: CDK2/CycE kinase assay (TR-FRET); type: biochemical; details: Method 2, 10 μM ATP
T1 construct: GST; purchased ProQinase GmbH (Freiburg, Germany); host or cells: insect cells (Sf9)
Outline: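 GST-CDK2/GST-CycE (Sf9-expressed, ~130 ng/ml) pre-incubated with compound 15 min, then reacted 25 min at 22 °C with 10 μM ATP and 0.75 μM biotinylated peptide in Tris pH 8.0. Phospho-substrate detected by TR-FRET (anti-pRb pSer807/811, Eu/XL665), 665/620 nm ratio.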

[2] = system: NCI-H460, human non-small cell lung carcinoma cells; test: Proliferation assay (crystal violet), NCI-H460; type: cell-based; details: read-out: Inhibition of H460 cell proliferation (activity range)
Procedure: Cultivated tumour cells (NCI-H460, human non-small cell lung carcinoma cells, ATCC HTB-177; DU 145, hormone-independent human prostate carcinoma cells, ATCC HTB-81; HeLa-MaTu, human cervical carcinoma cells, EPO-GmbH, Berlin; HeLa-MaTu-ADR, multidrug-resistant human cervical carcinoma cells, EPO-GmbH, Berlin; HeLa human cervical tumour cells, ATCC CCL-2; Caco-2 human colorectal carcinoma, ATCC HTB-37; B16F10 mouse melanoma cells, ATCC CRL-6475) were plated at a density of 5000 cells/well (DU145, HeLa-MaTu-ADR), 3000 cells/well (NCI-H460, HeLa-MaTu, HeLa), 1500 cells/well (Caco-2), or 1000 cells/well (B16F10) in a 96-well multititer plate in 200 μL of their respective growth medium supplemented 10% fetal calf serum. After 24 hours, the cells of one plate (zero-point plate) were stained with crystal violet (see below), while the medium of the other plates was replaced by fresh culture medium (200 μl), to which the test substances were added in various concentrations (0 μM, as well as in the range of 0.001-10 μM; the final concentration of the solvent dimethyl sulfoxide was 0.5%). The cells were incubated for 4 days in the presence of test substances. Cell proliferation was determined by staining the cells with crystal violet: the cells were fixed by adding 20 μl/measuring point of an 11% glutaric aldehyde solution for 15 minutes at room temperature. After three washing cycles of the fixed cells with water, the plates were dried at room temperature. The cells were stained by adding 100 μl/measuring point of a 0.1% crystal violet solution (pH 3.0). After three washing cycles of the stained cells with water, the plates were dried at room temperature. The dye was dissolved by adding 100 μl/measuring point of a 10% acetic acid solution. The extinction was determined by photometry at a wavelength of 595 nm. The change of cell number, in percent, was calculated by normalization of the measured values to the extinction values of the zero-point plate (=0%) and the extinction of the untreated (0 μm) cells (=100%). The IC50 values were determined by means of a 4 parameter fit.

[3] = system: DU 145, hormone-independent human prostate carcinoma cells; test: Proliferation assay (crystal violet), DU 145; type: cell-based; details: DU145 cells, read-out: Inhibition of DU145 cell proliferation
[4] = system: HeLa human cervical tumour cells; test: Proliferation assay (crystal violet), HeLa; type: cell-based; details: read-out: Inhibition of HeLa cell proliferation
[5] = system: Caco-2 human colorectal carcinoma; test: Proliferation assay (crystal violet), Caco-2; type: cell-based; details: CACO-2 cells, read-out: Inhibition of CACO-2 cell proliferation

SMILES	IC50 [1] [nM]	IC50 [2] [nM]	IC50 [3] [nM]	IC50 [4] [nM]	IC50 [5] [nM]
CS(=O)(=O)Cc1cccc(Nc2ncnc(-c3ccc(Cl)cc3OC3CCCC3)n2)c1 [Example 29, 4-[4-Chloro-2-(cyclopentyloxy)phenyl]-N-{3-[(methylsulfonyl)methyl]phenyl}-1,3,5-triazin-2-amine]	12000	730	530	530	690
CS(=O)(=O)Cc1cccc(Nc2ncnc(-c3ccc(F)cc3OCc3ccnc(Cl)c3)n2)c1 [Example 88, 4-{2-[(2-Chloropyridin-4-yl)methoxy]-4-fluorophenyl}-N-{3-[(methylsulfonyl)-methyl]phenyl}-1,3,5-triazin-2-amine]	130	210	170	190	
COc1cc(F)c(F)cc1-c1ncnc(Nc2cccc(CS(C)(=O)=O)c2)n1 [Example 1, 4-(4,5-Difluoro-2-methoxyphenyl)-N-{3-[(methylsulfonyl)methyl]phenyl}-1,3,5-triazin-2-amine]	640	910	830	680	
Cc1cccc(COc2cc(F)ccc2-c2ncnc(Nc3cccc(CS(C)(=O)=O)c3)n2)c1 [Example 83, 4-{4-Fluoro-2-[(3-methylbenzyl)oxy]phenyl}-N-{3-[(methylsulfonyl)-methyl]phenyl}-1,3,5-triazin-2-amine]	400	380	380	510	740
CC#CCOc1cc(F)ccc1-c1ncnc(Nc2cccc(CS(C)(=O)=O)c2)n1 [Example 62, 4-[2-(But-2-yn-1-yloxy)-4-fluorophenyl]-N-{3-[(methylsulfonyl)methyl]phenyl}-1,3,5-triazin-2-amine]	540	160	170	110	
COc1cc(F)ccc1-c1ncnc(Nc2cc(F)cc(CS(C)(=O)=O)c2)n1 [Example 10, 4-(4-Fluoro-2-methoxyphenyl)-N-{3-fluoro-5-[(methylsulfonyl)methyl]phenyl}-1,3,5-triazin-2-amine]	320	220	220	110	
CS(=O)(=O)Cc1cccc(Nc2ncnc(-c3cc(F)ccc3OCc3cccc(F)c3)n2)c1 [Example 31, 4-{5-Fluoro-2-[(3-fluorobenzyl)oxy]phenyl}-N-{3-[(methylsulfonyl)methyl]phenyl}-1,3,5-triazin-2-amine]	330	200	280	290	
COc1cc(F)ccc1-c1ncnc(Nc2cccc(CS(C)(=O)=O)c2)n1 [Example 3, 4-(4-Fluoro-2-methoxyphenyl)-N-{3-[(methylsulfonyl)methyl]phenyl}-1,3,5-triazin-2-amine]	1600	1200	1200		
CCOc1cc(F)ccc1-c1ncnc(Nc2cccc(CS(C)(=O)=O)c2)n1 [Example 42, 4-(2-Ethoxy-4-fluorophenyl)-N-{3-[(methylsulfonyl)-methyl]phenyl}-1,3,5-triazin-2-amine]	590	290	260	330	
CS(=O)(=O)Cc1cccc(Nc2ncnc(-c3ccc(F)cc3OCc3ccccc3)n2)c1 [Example 4, 4-[2-(Benzyloxy)-4-fluorophenyl]-N-{3-[(methylsulfonyl)methyl]phenyl}-1,3,5-triazin-2-amine]	89	150		100	
COc1cc(F)ccc1-c1ncnc(Nc2ccc(F)c(CS(C)(=O)=O)c2)n1 [Example 33, 4-(4-Fluoro-2-methoxyphenyl)-N-{4-fluoro-3-[(methylsulfonyl)methyl]phenyl}-1,3,5-triazin-2-amine]	360	340	330	340	
COc1cc(F)ccc1-c1ncnc(Nc2cccc(CS(=O)(=O)C3CC3)c2)n1 [Example 40, N-{3-[(Cyclopropylsulfonyl)methyl]phenyl}-4-(4-fluoro-2-methoxyphenyl)-1,3,5-triazin-2-amine]	1300	600	600	640	
